The record followed here is PubChem BioAssay (NCI).

Test in all cases: NCI anticancer screen, dose series, 48 h
In assay [1] the test system is A549 NSCLC.
The test system of assay [2] is COLO 205 colon.
Assay [3] concerns EKVX NSCLC.
For assay [4], the system named is HCT-15 colon.
Assay [5] has as its system HOP-92 NSCLC.
In assay [6] the test system is LOX IMVI melanoma.
The subject of assay [7] is MDA-MB-435.
Assay [8] relates to MDA-N.
For assay [9], the system named is NCI-H226 lung.
Assay [10] deals with NCI/ADR-RES ovarian.
Assay [11] relates to SF-268 CNS.
The test system of assay [12] is SK-MEL-2 melanoma.
The test system of assay [13] is SK-MEL-5 melanoma.
For assay [14], the system named is SNB-19 CNS.
Assay [15] deals with SNB-75 CNS.
Assay [16] concerns SR leukemia.
The test system of assay [17] is SW-620 colon.
The subject of assay [18] is TK-10 renal.
Assay [19] relates to U251 CNS.
In assay [20] the test system is HOP-62 NSCLC.

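96-well plates; 48 h exposure; 5 concentrations. Endpoints by linear interpolation between flanking doses. Not reached: highest tested concentration assigned. TGI: concentration producing complete growth inhibition.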

For `CCOC(=O)c1nc2cc(C(F)(F)F)ccc2nc1Oc1ccc(F)cc1`, the TGI in assay [1], in assay [2], in [3], in assay [4], in assay [5] and in assay [6] was more than 100 µM throughout. In addition, the TGI in [7], in assay [8], in assay [9], in assay [10], in assay [11] and in [12] was more than 100 µM throughout. The TGI in [13], in assay [14], in assay [15], in assay [16], in assay [17] and in assay [18] was more than 100 µM throughout. Besides, in assay [19], the TGI was more than 100 µM.
Take `N#Cc1c(-c2ccccc2)cc(Nc2ccc(Cl)cc2)n2c1nc1ccccc12`: the TGI in assay [1] is more than 40.1 µM; in [2] it was 2.8 µM; in assay [3], more than 46.7 µM; in assay [4] it was more than 88 µM; in [20], more than 58.2 µM; in [5], 4.63 µM. Besides, the TGI was more than 100 µM in assay [6]; more than 100 µM in assay [7]; more than 41.6 µM in [8]; more than 100 µM in assay [9]; 15.7 µM in assay [10]; more than 100 µM in [11]. Moreover, the TGI was more than 83.6 µM in assay [12]; 4.98 µM in assay [13]; more than 100 µM in [14]; more than 31.1 µM in assay [15]; 20.3 µM in assay [16]; more than 100 µM in [17]. The TGI is more than 100 µM in assay [18] and 97.5 µM in assay [19].
With `COc1ccc2oc(C(=O)N3CC(CCl)c4ccc(N)cc43)cc2c1` (configuration not stated), the TGI in [1] is more than 100 µM; in [2], 1.28 µM; in [3], 4 µM; in [4], 3.18 µM; in [20], more than 100 µM; in [5] it was 18.7 µM. The TGI in [6] was found to be 32 µM; in assay [7] it was 1.24 µM; in [8] it was 1.82 µM; in assay [9], 14.1 µM; in [10], 0.758 µM; in [11] it was 9.61 µM. Moreover, the TGI in [12] worked out at 0.72 µM; in assay [14], 19.5 µM; in assay [15], 3.23 µM; in assay [16], 4.76 µM; in assay [17], 31.5 µM; in [18], 7.12 µM. Besides, the TGI in [19] was found to be 15.2 µM.
As to `Nc1c2cc3ccc2nc2ccc(cc12)OCCOCCOCCOCCOCCOCCO3`, the TGI in [1], in assay [2], in assay [3], in assay [4], in assay [20] and in [5] was more than 10 µM throughout. For the same compound, the TGI in assay [6], in assay [7], in [8], in [9], in assay [10] and in assay [11] was more than 10 µM each time. The TGI in [12], in [13], in assay [14], in assay [15], in assay [16] and in [17] was more than 10 µM each time. Besides, the TGI in assay [18] and in assay [19] was more than 10 µM in each case.
With `COc1ccc(/C=C/C(=O)Oc2ccccc2OC)cc1`, the TGI in assay [1] is more than 100 µM; in assay [2], 21.2 µM; in assay [3] it was more than 100 µM; in assay [4] it was 37 µM; in assay [20], more than 62.4 µM; in assay [5], 97.7 µM. Moreover, the TGI in [6] was more than 70.7 µM; in [7] it was more than 80.5 µM; in [8], more than 100 µM; in assay [9], more than 100 µM; in [10], more than 68.3 µM; in [11] it was 4.71 µM. Moreover, the TGI is more than 95.3 µM in assay [12]; more than 100 µM in [13]; more than 100 µM in assay [14]; more than 74.1 µM in [15]; 32.3 µM in [16]; more than 100 µM in [17]. For the same compound, the TGI in [18] and in assay [19] was more than 100 µM each time.
Consider `COc1cc(OC)c(C2(c3c(OC(C)C)c(=O)c3=O)SCCCS2)cc1OC`, for which the TGI in assay [1], in assay [2], in assay [3], in assay [4], in assay [20] and in assay [5] was more than 100 µM in each case. For the same compound, the TGI in [6], in [7], in assay [8], in [9], in assay [10] and in assay [11] was more than 100 µM throughout. The TGI in assay [12], in assay [13], in [14], in assay [15], in [16] and in assay [17] was more than 100 µM in each case. The TGI in assay [18] and in [19] was more than 100 µM throughout.
As for `O=C(Nc1ccc2cc3ccccc3cc2c1)c1cc2c(cc1Cl)Sc1nccn1S2(=O)=O`, the TGI in assay [1], in assay [2], in assay [3], in assay [4], in [20] and in assay [5] was more than 100 µM in each case. Moreover, the TGI in assay [6] was more than 100 µM; in assay [7], more than 100 µM; in assay [8], more than 100 µM; in assay [9], more than 100 µM; in assay [10], more than 100 µM; in assay [11], 97.6 µM. Also, the TGI in [12] was more than 100 µM; in [13] it was more than 100 µM; in assay [14], more than 100 µM; in assay [15], 81.2 µM; in assay [16] it was more than 100 µM; in assay [17], more than 100 µM. The figures for the TGI in assay [18] and in [19] were 70.7 µM and more than 100 µM, respectively.
Turning to `O=C1NC(=Nc2ccccc2)C(=Nc2ccccc2)N1c1ccccc1`, the TGI in assay [1] worked out at 31 µM; in assay [2], 28 µM; in [3], 31.5 µM; in [4] it was 28.2 µM; in [20], 32.5 µM; in assay [5], 30 µM. Moreover, the TGI in assay [6] came out at 30.1 µM; in assay [7], 29.7 µM; in [8] it was 25.6 µM; in assay [9], 32 µM; in assay [10] it was 30.6 µM; in assay [11], 34 µM. For the same compound, the TGI in assay [12] amounted to 29.3 µM; in [13], 29.7 µM; in [14], 31.4 µM; in assay [15], 30.9 µM; in assay [16] it was 51.1 µM; in [17] it was 30 µM. Further, the TGI turned out to be 30.8 µM in assay [18] and 28.9 µM in assay [19].
As to `N#Cc1c(-c2ccc([N+](=O)[O-])cc2)cc(-c2ccc(Nc3ccnc4cc(Cl)ccc34)cc2)nc1N`, the TGI in assay [1] is 8.8 µM; in assay [2] it was more than 66 µM; in assay [3] it was 38 µM; in assay [4] it was 18.6 µM; in assay [20], 29.7 µM; in assay [5] it was 48.7 µM. Moreover, the TGI in assay [6] is 2.9 µM; in assay [7], 17.5 µM; in assay [8], 17.1 µM; in assay [9], more than 95.2 µM; in [10], 26.8 µM; in [11], 42.2 µM. The TGI was 43.5 µM in [12]; more than 55.4 µM in [13]; 47.4 µM in assay [14]; 34.6 µM in [15]; 2.48 µM in [16]; more than 100 µM in assay [17]. Besides, the TGI is 43 µM in [18] and 2.82 µM in assay [19].
With `COc1cccc2cc(C(=O)NC34CC5CC(CC(C5)C3)C4)c(=N)oc12`, the TGI in [1] is more than 100 µM; in assay [2] it was more than 100 µM; in assay [3] it was more than 100 µM; in assay [4], more than 100 µM; in assay [20] it was more than 100 µM; in assay [5], more than 55 µM. Besides, the TGI in assay [6], in assay [7], in assay [8], in assay [9], in assay [10] and in assay [11] was more than 100 µM in each case. Besides, the TGI in [12] is more than 100 µM; in assay [13], more than 100 µM; in assay [14] it was more than 100 µM; in assay [15], more than 100 µM; in assay [16], more than 47.4 µM; in assay [17], more than 100 µM. For the same compound, the TGI in assay [18] and in assay [19] was more than 100 µM throughout.
On to `CC(CC[C@@]1(O)OC2C[C@H]3[C@@H]4CC[C@H]5CC(OC6OC(CO)C(OC7OC(CO)C(O)C(OC8OCC(O)C(O)C8O)C7OC7OC(CO)C(O)C(O)C7O)C(O)C6O)[C@H](O)CC5(C)[C@H]4CCC3(C)C2[C@@H]1C)COC1OC(CO)C(O)C(O)C1O` (some centres not stated), for which the TGI is 11.1 µM in assay [1]; 31 µM in assay [2]; 8.9 µM in assay [3]; more than 50 µM in [4]; 17.9 µM in assay [20]; more than 50 µM in assay [5]. The TGI in assay [6] was 48.8 µM; in assay [7], more than 50 µM; in assay [8], more than 50 µM; in assay [9], 28.8 µM; in assay [10] it was 31.1 µM; in assay [11], 9.32 µM. In addition, the TGI is 31.6 µM in assay [12]; 17.7 µM in [13]; more than 50 µM in [14]; 9.19 µM in assay [15]; more than 50 µM in assay [16]; more than 50 µM in assay [17]. The values for the TGI in [18] and in assay [19] were 16.6 µM and more than 50 µM, respectively.
`O=c1c2c3c(sc2nc2n1N=CN(c1ccc(F)cc1)C2)CCCC3`: the TGI in assay [1], in [2], in [3], in assay [4], in assay [20] and in assay [5] was more than 100 µM in each case. Further, the TGI in assay [6], in assay [7], in [8], in [9], in assay [10] and in assay [11] was more than 100 µM each time. In addition, the TGI in assay [12], in assay [13], in assay [14], in assay [15], in assay [16] and in assay [17] was more than 100 µM each time. Besides, the TGI in [18] and in [19] was more than 100 µM throughout.
Consider `C=CC[C@]1(C2=NC(C)(C)CO2)c2ccccc2-c2ccccc2[C@H]1C(C)=O`, for which the TGI in assay [1] is 36.8 µM; in assay [2], 15 µM; in assay [3] it was 40.6 µM; in assay [4], 26.4 µM; in [20], 32.7 µM; in assay [5], 39.8 µM. The TGI in [6] amounted to 25.8 µM; in [7], 14.7 µM; in [8] it was 8.45 µM; in [9], 30 µM; in [10], 22.7 µM; in assay [11], 29.3 µM. Also, the TGI came to 15.4 µM in assay [12]; 12.7 µM in assay [13]; 34.7 µM in assay [14]; 46.2 µM in assay [15]; 14 µM in assay [16]; 34.4 µM in assay [17]. Further, the results for the TGI in assay [18] and in assay [19] were 34.4 µM and 21.6 µM, respectively.
Turning to `C#CC(O)/C=C/C(O)CCCC(O)CC#CC(O)C#CCCCCC(O)/C=C/CCCC(O)/C=C/CCCCCCCCCCCCCC(O)C(O)C#CC(=O)O` (configuration not stated), the TGI in assay [1], in assay [2], in assay [3], in assay [4], in [20] and in [5] was more than 25 µM throughout. The TGI in assay [6], in assay [7], in [8], in [9], in assay [10] and in assay [11] was more than 25 µM throughout. Further, the TGI in assay [12], in [13], in [14], in [15], in [16] and in assay [18] was more than 25 µM each time. Besides, in assay [19], the TGI is more than 25 µM.
